{
  "source": "patent US20080274097A1",
  "about": "“BOOSTER FOR THERAPY OF DISEASES WITH ULTRASOUND AND PHARMACEUTICAL LIQUID COMPOSITION CONTAINING THE SAME” (priority 1991, published 2008)",
  "system": "artificial thrombosis",
  "assay": "Fibrinolysis of artificial thrombosis (Chandler's method) with ultrasonic catheter",
  "set-up": "species or system human",
  "conditions": "for time for achieving 20% fibrinolysis: FIG. 4, thrombosis from blood of one person, urokinase 1200 IU/ml",
  "experimental": "An artificial thrombosis was formed by Chandler's method. Blood (1 ml) that was collected from healthy humans (two persons) was entered into a flexible tube (inside diameter 3 mm, length 265 mm) and thereto was added calcium chloride, and then the tube was made a loop like shape, which was rotated at 12 rpm for 20 minutes to give an artificial thrombosis model.\nA ceramic ultrasonic element (width 2 mm, length 5 mm, thickness 1 mm) was inserted into the tip of a catheter (diameter 2 mm), and an oscillating element was connected to an oscillator provided outside with a fine connector passed through the catheter. A fine tube for pouring a test solution was provided at an opening opposite to the opening of the catheter end.\nThe artificial thrombosis prepared above was added to a test tube together with blood, and the ultrasonic catheter was inserted into the test tube so that the end of the catheter was set close to the portion of the artificial thrombosis (at a distance of about 5 mm), and to the test tube a mixture of urokinase and a booster prepared in Example 1 was added at a rate of 1 ml per minute, wherein urokinase (concentration 1200 IU/ml) and the booster were mixed immediately before pouring at a mixing ration of 1:1 by weight. The mixture was refluxed while keeping the volume of the test solution at a constant level by removing excess volume of the solution by suction. The ultrasound (170 KHz) was exposed to the mixture by a pulse method (exposed for 2 seconds and stopped for 4 seconds) for 2 minutes (total exposing time 40 seconds). After the exposure, the ultrasonic catheter was removed from the test tube, and the mixture was incubated at 37 degrees C. for 5 to 120 minutes, washed with a physiological saline solution several times and dried overnight. Thereafter, the dried mixture was weighed. As a control, the above was repeated by using only a physiological saline solution.\nThe rate of fibrinolysis was calculated by the following equation: […]\nThe results are shown in the accompanying FIGS. 4 and 5 wherein there are shown in average of twice tests.",
  "data": [
    {"substance": "urokinase", "values": [
      {"measurement": "time for achieving 20% fibrinolysis", "setting": "with exposure of ultrasound (170 KHz, pulse, 2 minutes)", "value": 30, "unit": "min"},
      {"measurement": "time for achieving 20% fibrinolysis", "setting": "without exposure of ultrasound", "value": 45, "unit": "min"},
      {"measurement": "treatment time at which 50% fibrinolysis was achieved", "setting": "FIG. 5, thrombosis from blood of another person, with exposure of ultrasound, energy reduced by 15%", "value": 60, "unit": "min"}
    ]}
  ]
}
